In test [1] the test system is MCF-7 breast cancer cells. Put plainly: alamarBlue cell viability assay. The following applies: Homo sapiens, MCF7; MCF-7; 1 μM; 72 h; read-out: viable cells. In kind it is cell-based. As to the method:
Figure 5 Preliminary cell viability data for Series 1: (A) compounds 22a–22g and chalcone 20b and Series 2: (B) compounds 23a–e and chalcone 20b in MCF-7 breast cancer cells. Cell proliferation of MCF-7 cells was determined with an alamarBlue assay (seeding density 2.5 × 10^4 cells/mL per well for 96-well plates). Compound concentrations of either 1 or 0.1 μM for 72 h were used to treat the cells (in triplicate) with control wells containing vehicle ethanol (1% v/v). The mean value ± SEM for three independent experiments is shown. The positive controls used are CA-4 and phenstatin (1.0 μM and 0.1 μM). Statistical analysis was performed using One-way ANOVA with the Sidak multiple comparison test (***, p < 0.001).
HL-60 cells were suspension cells and the seeding density for the viability assay was 25,000 cells/mL. MCF-7 cells (adherent) were cultured in Minimum Essential Media (MEM) with GlutaMAX™-I, supplemented with 1% (v/v) non-essential amino acids, 10% (v/v) fetal bovine serum (FBS), purchased from BD Biosciences (Edmund Halley Road, Oxford, UK), and 1% (v/v) penicillin/streptomycin 5000 U/mL. The MCF-7 cells used in the screening of the compounds during these experiments were mycoplasma-free. The seeding density of MCF-7 in the viability assay was 25,000 cells/mL and 50,000 cells/mL in the FACS assay. Normal breast cells (MCF-10A) (adherent) were cultured in Dulbecco’s Modified Eagle Medium: Nutrient Mixture F-12 (DMEM/F12; Gibco) supplemented with 5% horse serum (Invitrogen, Waltham, MA, USA), 20 ng/mL epidermal growth factor (Merck Millipore, Burlington, MA, USA), 0.5 μg/mL hydrocortisone (Sigma, Kanagawa, Japan), 100 ng/mL cholera toxin (Sigma), 10 μg/mL insulin (Sigma), and penicillin/streptomycin 5000 U/mL (1%) (Gibco, Waltham, MA, USA). […] MDA-MB-231 cells were cultured in Dulbecco’s Modified Eagle Medium, which was supplemented with 10% (v/v) fetal bovine serum (FBS) and 1% (v/v) penicillin/streptomycin 5000 U/mL. When not in use, all cells were kept in liquid nitrogen and frozen in a freezing media made of 90% FBS and 10% DMSO. All cells were grown in an atmosphere of 5% CO2/95% air in T75 culture flasks. The media was changed every 2–3 days and media was always prewarmed to 37 °C. All were sub-cultured every 3–4 days by trypsinization using TrypLE™ Express enzyme when confluence was reached to allow growth, prevent excessive cell death, and minimize the risk of infections derived by over-confluence. For the cell viability assay, the number of cells per milliliter was 25,000 cells/mL while the FACS assay utilized 50,000 cells/mL. Cells were maintained at 37 °C in 5% CO2 in a humidified incubator.
The biochemical assays were performed in triplicate and on at least three independent occasions to facilitate the determination of mean values. For the viability assay, cells were grown until 80% confluent. Adherent cells such as MCF-7, MDA-MB-231, and MCF-10A were trypsinized to detach them from the flask, counted as previously described, and seeded in 96 well plates with a seeding density of 25,000 cells /mL (200 µL of suspension in each well so that the final number of cells per well was 5000) and 1 × 10^4 cells/well seeding density for suspension HL-60 cells. Adherent cells were incubated for 24 h after being seeded in the 96 well plate and treated on the following day, while suspension cells were treated on the same day of the seeding. In both cases, the incubation time after the treatment with the drug was 72 h. After 68 h incubation, the AlamarBlue was added (20 µL in each well) and the incubation time was completed. After 72 h, the change in color was measured by spectrofluorimetry at an excitation wavelength of 544 nm and emission wavelength of 590 nm. AlamarBlue is a cell viability indicator containing a compound called resazurin. AlamarBlue is water soluble, stable in culture media, non-toxic, and is permeable through the cell membrane. […]
(In general: The colour change of resazurin is a common sign of viable cells or microbes.)

A further test concerns breast cancer panel. As to the kind of experiment: NCI60 screen (SRB), panel mean. In kind it is cell-based, human. Particulars: BC panel; one dose 10 µM; 48 h.
Another test relates to MOLT-4 (Leukemia). As to the kind of experiment: NCI60 screen (SRB). It is filed as cell-based, human. The following applies: one dose 10 µM, 48 h.
The subject of another test is SR (Leukemia). Put plainly: NCI60 screen (SRB). In kind it is cell-based, human. The following applies: one dose 10 µM, 48 h.
Test [2] relates to NCI-H226 (Non-Small Cell Lung Cancer). As to the kind of experiment: NCI60 screen (SRB). It is filed as cell-based, human. The following applies: one dose 10 µM, 48 h.
In test [3] the test system is NCI-H23 (Non-Small Cell Lung Cancer). Put plainly: NCI60 screen (SRB). It is filed as cell-based, human. Particulars: one dose 10 µM, 48 h.
For test [4], the system named is NCI-H322M (Non-Small Cell Lung Cancer). As to the kind of experiment: NCI60 screen (SRB). It is filed as cell-based, human. Particulars: one dose 10 µM, 48 h.
The test system of test [5] is NCI-H460 (Non-Small Cell Lung Cancer). As to the kind of experiment: NCI60 screen (SRB). In kind it is cell-based, human. Particulars: one dose 10 µM, 48 h.
A further test concerns HCT-116 (Colon Cancer). As to the kind of experiment: NCI60 screen (SRB). It is filed as cell-based, human. Particulars: one dose 10 µM, 48 h.
In the next test the test system is KM12 (Colon Cancer). Put plainly: NCI60 screen (SRB). In kind it is cell-based, human. Particulars: one dose 10 µM, 48 h.
Another test has as its system SF-268 (CNS Cancer). As to the kind of experiment: NCI60 screen (SRB). It is filed as cell-based, human. Particulars: one dose 10 µM, 48 h.
In another test the test system is SF-295 (CNS Cancer). As to the kind of experiment: NCI60 screen (SRB). In kind it is cell-based, human. The following applies: one dose 10 µM, 48 h.
Another test concerns SF-539 (CNS Cancer). As to the kind of experiment: NCI60 screen (SRB). It is filed as cell-based, human. The following applies: one dose 10 µM, 48 h.
A further test has as its system MDA-MB-435 (Melanoma). As to the kind of experiment: NCI60 screen (SRB). In kind it is cell-based, human. The following applies: one dose 10 µM, 48 h.
The test system of a further test is SK-MEL-28 (Melanoma). As to the kind of experiment: NCI60 screen (SRB). The following applies: one dose 10 µM, 48 h. It is filed as cell-based, human.
Another test has as its system UACC-257 (Melanoma). As to the kind of experiment: NCI60 screen (SRB). Particulars: one dose 10 µM, 48 h. It is filed as cell-based, human.
In another test the test system is ACHN (Renal Cancer). Put plainly: NCI60 screen (SRB). It is filed as cell-based, human. Particulars: one dose 10 µM, 48 h.
The next test deals with MCF7 (Breast Cancer). As to the kind of experiment: NCI60 screen (SRB). The following applies: one dose 10 µM, 48 h. In kind it is cell-based, human.
The next test deals with HS 578T (Breast Cancer). As to the kind of experiment: NCI60 screen (SRB). It is filed as cell-based, human. Particulars: HS 578T; one dose 10 µM; 48 h.

On to `COc1cc(/C=C/C(/C=C/c2cc(OC)c(OC)c(OC)c2)n2ccnc2)cc(OC)c1OC` [Compound 30, 1-((1E,4E)-1,5-bis(3,4,5-trimethoxyphenyl)penta-1,4-dien-3-yl)-1H-imidazole], for which the viability at 1 µM in [1] came to 77%. The compound further had a mean growth percentage in the test on breast cancer panel of 71.5%. In addition, the growth percent in the test with MOLT-4 (Leukemia) is on record as 74.07%; in the test with SR (Leukemia), 31.50%; in [2] it was 84.81%; in test [3] it was 81.16%; in test [4] it was 96.68%; in [5], 93.96%. Besides, the growth percent with HCT-116 (Colon Cancer) is 78.18%; with KM12 (Colon Cancer), 82.35%; in the test on SF-268 (CNS Cancer), 91.93%; in the test on SF-295 (CNS Cancer), 95.73%; with SF-539 (CNS Cancer), 93.55%; with MDA-MB-435 (Melanoma), 45.63%. The growth percent in the test on SK-MEL-28 (Melanoma) stood at 100.52%; with UACC-257 (Melanoma), 75.61%; with ACHN (Renal Cancer) it was 99.92%; with MCF7 (Breast Cancer) it was 57.42%; in the test on HS 578T (Breast Cancer), 77.21%.
